In patent US6464958B1, “Process for the preparation of suspensions of drug particles for inhalation delivery” (Chiesi Farmaceutici S.p.A., priority 1998, dated 2002):
Like-named read-outs stand apart in the source and are kept apart here. Blank lines part the entries; values can stand above or below the compound they belong to.

Experiments:
[1] = HPLC purity and related substances of micronised BDP after gamma-irradiation; type: physicochemical
Protocol: (§1) About 600 g of micronised BDP was stored in a 20 1 polythene container after having replaced air by nitrogen, the container was in turn sealed in two Polikem bag. The product was subjected to gamma-irradiation at 2 to 9 KGy. After the exposure, the BDP purity and the amount of related substances were determined by HPLC. On the batch subjected to 2 kGy dose, the particle size as well as the loss of weight were also determined by Malvern analysis and TGA respectively, in comparison to the non-irradiated product.

[2] = cited from earlier work; for stability after gamma-irradiation: 60Co, 1 to 4 Mrad; for degradation degree: micronised steroids, radiation doses 4.5 and 15 Mrad
[3] = Loss of weight by TGA of micronised BDP after gamma-irradiation; type: physicochemical
Protocol: as §1

[4] = Particle size of micronised BDP powder by Malvern analysis; type: physicochemical
Protocol: as §1

stability after exposure to gamma-irradiation ([1]; 2 to 9 KGy): stable
Structure (SMILES): CCC(=O)OCC(=O)[C@@]1(OC(=O)CC)[C@@H](C)C[C@H]2[C@@H]3CCC4=CC(=O)C=C[C@]4(C)[C@@]3(Cl)[C@@H](O)C[C@@]21C [BDP, beclomethasone dipropionate]
stability after gamma-irradiation ([2]; powder): stable immediately after irradiation
stability after gamma-irradiation ([2]; solution in methanol or propylene glycol): quick degradation

Loss of weight (%, TGA) ([3]; gamma-irradiation 2 KGy): 0.13%
Particle size distribution (μm, Malvern) d (0.1) ([4]; gamma-irradiation 2 KGy): 0.48 μm
Particle size distribution (μm, Malvern) d (0.5) ([4]; gamma-irradiation 2 KGy): 1.81 μm
Particle size distribution (μm, Malvern) d (0.9) ([4]; gamma-irradiation 2 KGy): 5.73 μm
Purity (%) ([1]; gamma-irradiation 2 KGy): 99.6%
Related substances (%) ([1]; gamma-irradiation 2 KGy): 0.4%
Purity (%) ([1]; gamma-irradiation 3.17 KGy): 99.6%
Related substances (%) ([1]; gamma-irradiation 3.17 KGy): 0.4%
Purity (%) ([1]; gamma-irradiation 9.08 KGy): 99.3%
Related substances (%) ([1]; gamma-irradiation 9.08 KGy): 0.7%
Structure (SMILES): CCC(=O)OCC(=O)[C@@]1(OC(=O)CC)[C@@H](C)C[C@H]2[C@@H]3CCC4=CC(=O)C=C[C@]4(C)[C@@]3(Cl)[C@@H](O)C[C@@]21C [Irr. BDP, beclomethasone dipropionate]

Loss of weight (%, TGA) ([3]; non-irradiated micronised powder): 0.12%
Particle size distribution (μm, Malvern) d (0.1) ([4]; non-irradiated powder): 0.49 μm
Particle size distribution (μm, Malvern) d (0.5) ([4]; non-irradiated powder): 1.91 μm
Particle size distribution (μm, Malvern) d (0.9) ([4]; non-irradiated powder): 5.98 μm
Purity (%) ([1]; non-irradiated): 99.7%
Related substances (%) ([1]; non-irradiated): 0.3%
Structure (SMILES): CCC(=O)OCC(=O)[C@@]1(OC(=O)CC)[C@@H](C)C[C@H]2[C@@H]3CCC4=CC(=O)C=C[C@]4(C)[C@@]3(Cl)[C@@H](O)C[C@@]21C [Non-irr. BDP, beclomethasone dipropionate]

Structure (SMILES): C[C@]12CCC(=O)C=C1CC[C@@H]1[C@@H]2[C@@H](O)C[C@@]2(C)[C@H]1CC[C@]2(O)C(=O)COC(=O)CCC(=O)O [hydrocortisone sodium succinate]
percentage of degradation ([2]; powder corticosteroids sterilised with 60Co): 1.4 %/Mrad

Structure (SMILES): C[C@]12CCC(=O)C=C1CC[C@@H]1[C@@H]2[C@@H](O)C[C@@]2(C)[C@H]1CC[C@]2(O)C(=O)CO [hydrocortisone]
degradation degree [2]: about 2.4%

Structure (SMILES): C[C@]12C=CC(=O)C=C1CC[C@@H]1[C@@H]2[C@@H](O)C[C@@]2(C)[C@H]1CC[C@]2(O)C(=O)CO [prednisolone]
degradation degree [2]: about 2.4%
